ChEMBL document CHEMBL1135688, “Pharmacophore model of drugs involved in P-glycoprotein multidrug resistance: explanation of structural variety (hypothesis)” (J Med Chem, 2002)

Columns and labels:
[1] = biological target: T1, ATP-dependent translocase ABCB1 (Homo sapiens, UniProt P08183); assay: Concentration required for 50% inhibition at binding site of human P-Glycoprotein (P-gp) in one-affinity model
[2] = biological target: T1, ATP-dependent translocase ABCB1; assay: Fraction of high affinity at binding site of human P-Glycoprotein (P-gp) in two-affinity model
[3] = biological target: T1, ATP-dependent translocase ABCB1; assay: High affinity constant at binding site of human P-Glycoprotein (P-gp) in two-affinity model

T1 sequence (P08183 whole entry): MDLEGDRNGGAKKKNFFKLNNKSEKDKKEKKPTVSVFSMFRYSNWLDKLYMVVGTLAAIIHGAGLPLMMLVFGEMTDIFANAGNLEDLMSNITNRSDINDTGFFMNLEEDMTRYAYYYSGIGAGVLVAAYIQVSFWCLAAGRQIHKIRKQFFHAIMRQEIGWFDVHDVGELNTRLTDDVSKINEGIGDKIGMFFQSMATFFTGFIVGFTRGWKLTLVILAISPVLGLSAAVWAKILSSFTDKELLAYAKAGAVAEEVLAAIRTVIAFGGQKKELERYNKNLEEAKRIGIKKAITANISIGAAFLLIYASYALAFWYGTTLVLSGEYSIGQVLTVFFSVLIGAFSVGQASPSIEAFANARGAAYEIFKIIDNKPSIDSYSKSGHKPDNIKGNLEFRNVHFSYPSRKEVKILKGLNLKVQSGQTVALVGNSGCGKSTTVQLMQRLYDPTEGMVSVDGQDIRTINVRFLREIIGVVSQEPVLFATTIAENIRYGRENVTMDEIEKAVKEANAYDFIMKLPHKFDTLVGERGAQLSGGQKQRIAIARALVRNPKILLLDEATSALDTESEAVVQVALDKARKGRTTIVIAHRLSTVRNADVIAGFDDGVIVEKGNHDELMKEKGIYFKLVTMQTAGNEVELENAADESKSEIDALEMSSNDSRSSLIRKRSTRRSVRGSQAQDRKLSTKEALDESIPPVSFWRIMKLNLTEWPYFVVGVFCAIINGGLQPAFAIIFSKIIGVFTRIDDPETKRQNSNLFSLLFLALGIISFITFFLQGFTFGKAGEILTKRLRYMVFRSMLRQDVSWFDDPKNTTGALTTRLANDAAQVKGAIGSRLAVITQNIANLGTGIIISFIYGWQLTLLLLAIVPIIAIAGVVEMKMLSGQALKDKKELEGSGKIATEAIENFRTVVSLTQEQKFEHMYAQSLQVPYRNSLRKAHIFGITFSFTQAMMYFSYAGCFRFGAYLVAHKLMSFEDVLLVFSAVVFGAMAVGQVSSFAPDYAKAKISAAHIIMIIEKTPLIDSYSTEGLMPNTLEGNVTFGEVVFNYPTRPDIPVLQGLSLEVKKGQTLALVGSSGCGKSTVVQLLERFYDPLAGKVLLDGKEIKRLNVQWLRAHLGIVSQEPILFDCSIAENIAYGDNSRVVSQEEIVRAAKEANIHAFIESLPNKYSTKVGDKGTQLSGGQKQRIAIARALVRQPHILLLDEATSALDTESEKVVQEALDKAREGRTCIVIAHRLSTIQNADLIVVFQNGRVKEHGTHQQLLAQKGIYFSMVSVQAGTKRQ

**Q.** How did the IC50 [1] turn out when COc1ccc(CCNCCCC(C#N)(c2ccc(OC)c(OC)c2)C(C)C)cc1OC (racemic) [NORVERAPAMIL] was run?
**A.** 4.24 µM

**Q.** For COC(=O)c1ccccc1-c1c2ccc(=N)cc-2oc2cc(N)ccc12, which IC50 [1] is on record?
**A.** 0.5 µM

**Q.** What about the Binding site fraction [2] of the same compound?
**A.** 0.7

**Q.** What about the Ki [3] of the same compound?
**A.** 0.1 µM

**Q.** For COc1ccc2[nH]c([S+]([O-])Cc3ncc(C)c(OC)c3C)nc2c1 (stereo in doubt; form 3) [OMEPRAZOLE], which IC50 [1] is on record?
**A.** 91.2 µM

**Q.** How did the Binding site fraction [2] turn out when COCCc1ccc(OCC(O)CNC(C)C)cc1 (stereo not given) [METOPROLOL] was run?
**A.** 0.2

**Q.** For CC[C@]1(O)C[C@@H]2CN(CCc3c([nH]c4ccccc34)[C@@](C(=O)OC)(c3cc4c(cc3OC)N(C)[C@H]3[C@@](O)(C(=O)OC)[C@H](OC(C)=O)[C@]5(CC)C=CCN6CC[C@]43[C@@H]65)C2)C1 [VINBLASTINE], which Binding site fraction [2] is on record?
**A.** 0.4

**Q.** COc1ccc2[nH]c([S+]([O-])Cc3ncc(C)c(OC)c3C)nc2c1 (stereo in doubt; form 1) [OMEPRAZOLE] was tested. Which IC50 [1] did it give?
**A.** 89 µM

**Q.** C=C[C@H]1C[N@@]2CC[C@H]1C[C@@H]2[C@@H](O)c1ccnc2ccc(OC)cc12 [QUINIDINE] was tested. Which Binding site fraction [2] did it give?
**A.** 0.2

**Q.** CC(C)NCC(O)COc1cccc2ccccc12 (stereo not given) [PROPRANOLOL] was tested. Which Binding site fraction [2] did it give?
**A.** 0.5

**Q.** Which Binding site fraction [2] does the source give for CN(C)CCCN1c2ccccc2Sc2ccc(Cl)cc21 [CHLORPROMAZINE] here?
**A.** 0.8

**Q.** How did the Binding site fraction [2] turn out when O=C(CCCN1CCC(O)(c2ccc(Cl)cc2)CC1)c1ccc(F)cc1 [HALOPERIDOL] was run?
**A.** 0.3

**Q.** For CC(C)NCC(O)COc1ccc(CCNC(=O)NC(C)C)cc1 (stereo not given) [PAFENOLOL], which Binding site fraction [2] is on record?
**A.** 0.2

**Q.** COc1ccc2[nH]c([S+]([O-])Cc3ncc(C)c(OC)c3C)nc2c1 (stereo in doubt; form 2) [OMEPRAZOLE] was tested. Which IC50 [1] did it give?
**A.** 97.2 µM

**Q.** With C=C[C@H]1C[N@@]2CC[C@H]1C[C@H]2[C@H](O)c1ccnc2ccc(OC)cc12 [QUININE] as the compound, how does the Binding site fraction [2] read?
**A.** 0.2
